{"source": "patent US12186283B2", "about": "“Bismuth-thiol compositions and methods of use” (Microbion Corporation, priority 2018, dated 2025)", "key": {"Candida krusei": {"system": "Candida krusei", "assay": "Broth microdilution MIC, yeast (Example 13)", "type": "cell-based", "conditions": "for MIC: Pichia kudriavzevii"}, "[1]": {"assay": "Particle size distribution of BisEDT microparticles", "type": "physicochemical", "conditions": "microparticles resuspended in 2% poloxamer 188, Nanosizer/Zetasizer Nano-S", "description": "The dried particulate matter was characterized to assess the particle size properties. Briefly, microparticles were resuspended in 2% poloxamer 188 (Pluronic® F-68) (BASF, Mt. Olive, NJ) and the suspension was sonicated for 10 minutes in a water bath sonicator at standard setting prior to analysis using a Nanosizer/Zetasizer Nano-S particle analyzer (model ZEN1600 (without zeta-potential measuring capacity), Malvern Instruments, Worcestershire, UK) according to the manufacturer's recommendations.\nIt was observed that careful control of the reaction temperature and the rate of 1,2 ethanedithiol addition had pronounced impact on the BisEDT particle size distribution."}, "P. aeruginosa [2]": {"system": "P. aeruginosa", "conditions": "control strain ATCC 27853 P. aeruginosa; cited from earlier work"}, "S. aureus ATCC 29213": {"system": "S. aureus ATCC 29213", "conditions": "S. aureus ATCC 29213, QC organism; cited from earlier work"}, "[3]": {"assay": "Rat single-dose PK: lung tissue BisEDT", "conditions": "for concentration at 24 h / concentration at 96 h: F344, rat, inhaled, 100 μg/kg"}, "P. aeruginosa [4]": {"system": "P. aeruginosa", "assay": "Checkerboard FIC assay, BisEDT with CF agents (Example 10)", "type": "cell-based, Pseudomonas aeruginosa", "conditions": "agent alone, as observed during FIC testing"}, "P. aeruginosa [5]": {"system": "P. aeruginosa", "assay": "Broth microdilution MIC (Example 10)"}, "[6]": {"system": "Burkholderia cepacia complex", "assay": "Broth microdilution MIC (Example 10)", "conditions": "initial MIC testing"}, "Escherichia coli": {"system": "Escherichia coli", "assay": "Broth microdilution MIC (Example 12)"}}, "note": "Read-outs that look alike come from different tables or passages of the source.", "data": [{"compound": "CC(S)C(C)S.[Bi]", "note": "(stereo not shown) [BisBDT, bismuth-2,3-butanedithiol]", "values": [{"measurement": "MIC 24 hr, second value of the pair x/y", "setting": "Candida krusei; C. krusei ATCC 6258 (QC, Table 110), 24 hr, footnote b not given", "value": 1}, {"measurement": "MIC 48 hr, second value of the pair x/y", "setting": "Candida krusei; C. krusei ATCC 6258 (QC, Table 110), 48 hr, footnote b not given", "value": 4}, {"measurement": "MIC 48 hr, first value of the pair x/y", "setting": "Candida krusei; C. krusei ATCC 6258 (QC, Table 110), 48 hr, footnote b not given, probably MIC2", "value": 1}, {"measurement": "MIC", "setting": "Candida krusei; read-out: MIC2 (50% inhibition)", "value": 0.5, "unit": "µg/mL"}, {"measurement": "MIC", "setting": "Candida krusei; read-out: MIC2 (50% inhibition), C. krusei MMX 7125, Susceptible", "value": 0.5, "unit": "µg/mL"}, {"measurement": "MIC", "setting": "Candida krusei; read-out: MIC2 (50% inhibition), C. krusei MMX 7155, Susceptible", "value": 0.5, "unit": "µg/mL"}, {"measurement": "MIC", "setting": "Candida krusei; read-out: MIC2 (50% inhibition), C. krusei MMX 7563, Susceptible", "value": 0.5, "unit": "µg/mL"}, {"measurement": "MIC", "setting": "Candida krusei; read-out: MIC2 (50% inhibition), C. krusei MMX 9878, MICA-I, VORI-I", "value": 0.5, "unit": "µg/mL"}]}, {"compound": "C1C[S][Bi]([S]CC[S][Bi]2[S]CC[S]2)[S]1", "note": "[BisEDT, bismuth-1,2-ethanedithiol]", "values": [{"measurement": "peak VMD", "setting": "[1]", "value": "about 1.3 microns"}, {"measurement": "Expected MIC: acceptable range", "setting": "P. aeruginosa [2]", "value": "0.5 to 4", "unit": "µg/mL"}, {"measurement": "Expected MIC: goal", "setting": "P. aeruginosa [2]", "value": "1 to 2", "unit": "µg/mL"}, {"measurement": "MIC, QC range", "setting": "S. aureus ATCC 29213", "value": "(0.12-1) μg/mL"}, {"measurement": "concentration at 24 h", "setting": "[3]; lung fluid", "value": 123, "unit": "µg/mL"}, {"measurement": "concentration at 96 h", "setting": "[3]; lung fluid", "value": 78, "unit": "µg/mL"}, {"measurement": "concentration at 24 h", "setting": "[3]; lung tissue", "value": 4090, "unit": "ng/g"}, {"measurement": "concentration at 96 h", "setting": "[3]; lung tissue", "value": 2600, "unit": "ng/g"}, {"measurement": "half-life of lung levels", "setting": "[3]; rat, IV dosing", "value": "about 24 hour"}, {"measurement": "lung levels relative to inhalation group", "setting": "[3]; rat, IV dosing 100 μg/kg", "value": "< 5", "unit": "%"}, {"measurement": "lung levels", "setting": "[3]; rat, oral dosing 250 μg/kg", "value": "no lung levels"}, {"measurement": "lung tissue half-life", "setting": "[3]; rat, single inhalation dose (100 μg/kg lung deposited)", "value": "about 4 days"}, {"measurement": "Mean BisEDT Conc, lung at sacrifice", "setting": "[3]; rat, single inhaled dose 47 μg/kg, sac time 30 hr", "value": 4.8, "unit": "ng/g"}, {"measurement": "Mean BisEDT Conc, lung at sacrifice", "setting": "[3]; rat, single inhaled dose 124 μg/kg, sac time 30 hr", "value": 5.9, "unit": "ng/g"}, {"measurement": "Mean BisEDT Conc, lung at sacrifice", "setting": "[3]; rat, single inhaled dose 400 μg/kg, sac time 30 hr", "value": 12.1, "unit": "ng/g"}, {"measurement": "Mean BisEDT Conc, lung at sacrifice", "setting": "[3]; rat, single inhaled dose 3000 μg/kg, sac time 24 hr", "value": 82.3, "unit": "ng/g"}]}, {"compound": "C[C@@H](O)[C@H]1C(=O)N2C(C(=O)O)=C(S[C@@H]3CN[C@H](C(=O)N(C)C)C3)[C@H](C)[C@H]12", "note": "[MEM]", "values": [{"measurement": "MIC", "setting": "P. aeruginosa [4]; P. aeruginosa isolate 6322", "value": 16, "unit": "µg/mL"}, {"measurement": "MIC", "setting": "P. aeruginosa [4]; P. aeruginosa isolate 6977", "value": 8, "unit": "µg/mL"}, {"measurement": "MIC", "setting": "P. aeruginosa [4]; P. aeruginosa isolate 7745", "value": 16, "unit": "µg/mL"}, {"measurement": "MIC", "setting": "P. aeruginosa [4]; P. aeruginosa isolate 8798", "value": 32, "unit": "µg/mL"}, {"measurement": "MIC", "setting": "P. aeruginosa [4]; P. aeruginosa isolate 9108", "value": 1, "unit": "µg/mL"}, {"measurement": "MIC", "setting": "P. aeruginosa [5]; P. aeruginosa isolate 103 (ATCC 25922), QC strain, initial MIC testing", "value": 1, "unit": "µg/mL"}, {"measurement": "MIC", "setting": "P. aeruginosa [5]; P. aeruginosa isolate 103 (ATCC 25922), during FIC testing, each agent tested alone for QC, one replicate", "value": 1, "unit": "µg/mL"}, {"measurement": "MIC", "setting": "P. aeruginosa [5]; P. aeruginosa isolate 1497 (TOB-R, AMK-R, CIP-I, AZT-R, COL-R), initial MIC testing", "value": 0.06, "unit": "µg/mL"}, {"measurement": "MIC", "setting": "P. aeruginosa [5]; P. aeruginosa isolate 1530 (TOB-R, AMK-R, CIP-R), initial MIC testing", "value": 0.5, "unit": "µg/mL"}, {"measurement": "MIC", "setting": "P. aeruginosa [5]; P. aeruginosa isolate 1553 (TOB-R, AMK-R, CIP-R), initial MIC testing", "value": 0.5, "unit": "µg/mL"}, {"measurement": "MIC", "setting": "P. aeruginosa [5]; P. aeruginosa isolate 6322 (MEM-R, TOB-R, AMK-R, CIP-R, AZT-R), initial MIC testing", "value": 16, "unit": "µg/mL"}, {"measurement": "MIC", "setting": "P. aeruginosa [5]; P. aeruginosa isolate 6977 (MEM-I, TOB-R, CIP-R, AZT-I), initial MIC testing", "value": 4, "unit": "µg/mL"}, {"measurement": "MIC", "setting": "P. aeruginosa [5]; P. aeruginosa isolate 7745 (MEM-R, CIP-R, AZT-R), initial MIC testing", "value": 16, "unit": "µg/mL"}, {"measurement": "MIC", "setting": "P. aeruginosa [5]; P. aeruginosa isolate 7754 (MEM-R, TOB-R, CIP-R, AZT-I), initial MIC testing", "value": 32, "unit": "µg/mL"}, {"measurement": "MIC", "setting": "P. aeruginosa [5]; P. aeruginosa isolate 7762 (MEM-I, CIP-I), initial MIC testing", "value": 4, "unit": "µg/mL"}, {"measurement": "MIC", "setting": "P. aeruginosa [5]; P. aeruginosa isolate 7871 (MEM-R, AZT-I), initial MIC testing", "value": 8, "unit": "µg/mL"}, {"measurement": "MIC", "setting": "P. aeruginosa [5]; P. aeruginosa isolate 7874, initial MIC testing", "value": 1, "unit": "µg/mL"}, {"measurement": "MIC", "setting": "P. aeruginosa [5]; P. aeruginosa isolate 7886 (MEM-R, CIP-R, AZT-R), initial MIC testing", "value": 32, "unit": "µg/mL"}, {"measurement": "MIC", "setting": "P. aeruginosa [5]; P. aeruginosa isolate 8797 (MEM-R, TOB-R, AMK-R, CIP-R, AZT-R, COL-R), initial MIC testing", "value": 32, "unit": "µg/mL"}, {"measurement": "MIC", "setting": "P. aeruginosa [5]; P. aeruginosa isolate 8798 (MEM-R, TOB-R, AMK-R, CIP-R, AZT-R, COL-R), initial MIC testing", "value": 64, "unit": "µg/mL"}, {"measurement": "MIC", "setting": "P. aeruginosa [5]; P. aeruginosa isolate 9108 (CIP-R, AZT-I), initial MIC testing", "value": 0.5, "unit": "µg/mL"}, {"measurement": "MIC", "setting": "[6]; B. cenocepacia isolate 0548 (CIP-R)", "value": 4, "unit": "µg/mL"}, {"measurement": "MIC", "setting": "[6]; B. cenocepacia isolate 0813 (CPI-I)", "value": 2, "unit": "µg/mL"}, {"measurement": "MIC", "setting": "[6]; B. cenocepacia isolate 1631", "value": 4, "unit": "µg/mL"}, {"measurement": "MIC", "setting": "[6]; B. cenocepacia isolate 1783", "value": 4, "unit": "µg/mL"}, {"measurement": "MIC", "setting": "[6]; B. cenocepacia isolate 8555", "value": 4, "unit": "µg/mL"}, {"measurement": "MIC", "setting": "[6]; B. cepacia isolate 0546", "value": 4, "unit": "µg/mL"}, {"measurement": "MIC", "setting": "[6]; B. cepacia isolate 0547", "value": 2, "unit": "µg/mL"}, {"measurement": "MIC", "setting": "[6]; B. cepacia isolate 1793", "value": 4, "unit": "µg/mL"}, {"measurement": "MIC", "setting": "[6]; B. cepacia isolate 1794", "value": 4, "unit": "µg/mL"}, {"measurement": "MIC", "setting": "[6]; B. cepacia isolate 9040", "value": 4, "unit": "µg/mL"}, {"measurement": "MIC", "setting": "[6]; B. multivorans isolate 1580 (CIP-R)", "value": 2, "unit": "µg/mL"}, {"measurement": "MIC", "setting": "[6]; B. multivorans isolate 1791", "value": 4, "unit": "µg/mL"}, {"measurement": "MIC", "setting": "[6]; B. multivorans isolate 1795 (MEM-I, CIP-R)", "value": 8, "unit": "µg/mL"}, {"measurement": "MIC", "setting": "[6]; B. multivorans isolate 5665 (CIP-I)", "value": 2, "unit": "µg/mL"}, {"measurement": "MIC", "setting": "[6]; B. multivorans isolate 8952 (CIP-I)", "value": 2, "unit": "µg/mL"}, {"measurement": "MIC", "setting": "Escherichia coli; E. coli ATCC 25922, QC organism", "value": "≤0.008", "unit": "µg/mL"}, {"measurement": "MIC", "setting": "Escherichia coli; E. coli ATCC 35218, QC organism", "value": "≤0.008", "unit": "µg/mL"}, {"measurement": "MIC", "setting": "Escherichia coli; Escherichia coli ATCC 35218, ESBL", "value": "≤0.008", "unit": "µg/mL"}, {"measurement": "MIC", "setting": "Escherichia coli; Escherichia coli ATCC BAA-2471, NDM", "value": ">8", "unit": "µg/mL"}, {"measurement": "MIC", "setting": "Escherichia coli; Escherichia coli CDC 114, ESBL/KPC", "value": 2, "unit": "µg/mL"}, {"measurement": "MIC", "setting": "Escherichia coli; Escherichia coli CDC 118, ESBL/NDM", "value": 0.06, "unit": "µg/mL"}, {"measurement": "MIC", "setting": "Escherichia coli; Escherichia coli CDC 435, NDM", "value": ">8", "unit": "µg/mL"}, {"measurement": "MIC", "setting": "Escherichia coli; Escherichia coli CDC 451, KPC", "value": 1, "unit": "µg/mL"}, {"measurement": "MIC", "setting": "Escherichia coli; Escherichia coli CDC 503, ESBL/NDM", "value": 8, "unit": "µg/mL"}, {"measurement": "MIC", "setting": "Escherichia coli; Escherichia coli MMX 5745, KPC", "value": 2, "unit": "µg/mL"}, {"measurement": "MIC", "setting": "Escherichia coli; Escherichia coli MMX 5755, ESBL", "value": 0.015, "unit": "µg/mL"}, {"measurement": "MIC", "setting": "Escherichia coli; Escherichia coli MMX 5756, ESBL", "value": "≤0.008", "unit": "µg/mL"}, {"measurement": "MIC", "setting": "Escherichia coli; Escherichia coli MMX 5758, ESBL", "value": "≤0.008", "unit": "µg/mL"}]}]}
